US6797255B1, “Methods and compositions for enhancing magnetic resonance imaging” (Mallinckrodt Inc., priority 1985, dated 2004)

How the values were obtained:
[1] = Solubility of the complex in water; assay type: physicochemical
Procedure: (§1) The complex, dihydrogen bis(N-[N′-(2,6-diisopropylphenyl)carbamoylmethyl]iminodiaceto)manganese(II) hydrate, was thus isolated as the hydrated species. The solubility of the complex in water was determined to be approximately 0.1% w/v. The relaxation parameters T1 and T2 of a 10-^−3M solution of the complex in a 90 MHz NMR experiment were determined to be 0.107 sec. and 0.007 sec. respectively. The T1 and T2 values for water are 2.51 sec. and 0.150 sec., respectively.
(§2) The relaxation parameters T1 and T2 of a 10^−3M solution of the complex in a 90 MHz NMR experiment were determined to be 126 milliseconds and 1.5 milliseconds, respectively.

[2] = Relaxation parameters T1 and T2 of a 10^−3M solution in a 90 MHz NMR experiment; assay type: physicochemical; settings: 10-^−3M solution
Procedure: as §1, §2

[3] = Toxicity profile of the gadolinium complex; settings: in vivo
liver = experiment: T1 and T2 lowering effects of the gadolinium complex in the liver; settings: in vivo

SMILES | solubility of the complex in water [1] | relaxation parameter T1 [2] | relaxation parameter T2 [2] | LD50 [3] | toxicity profile [3] | T1 and T2 lowering effects in the liver (liver)
CC(C)c1cccc(C(C)C)c1NC(=O)CN(CC(=O)[O-])CC(=O)O.CC(C)c1cccc(C(C)C)c1NC(=O)CN(CC(=O)[O-])CC(=O)O.O.[Mn+2] [Example 1] | approximately 0.1 % w/v | 0.107 s | 0.007 s |  |  | 
Cc1cccc(C)c1NC(=O)CN(CC(=O)[O-])CC(=O)O.Cc1cccc(C)c1NC(=O)CN(CC(=O)[O-])CC(=O)[O-].O.O.[Gd+3] [hydrogen bis(N-[N′-(2,6-dimethylphenyl)carbamoylmethyl]iminodiaceto)gadolinium(III) dihydrate] |  |  |  | about 0.2 mmol/kg | persistent, delayed toxicity | relatively poor T1 and T2 lowering effects in the liver
